Activity calls are given as the source filed them.
Columns and labels:
[1] = inhibitors of firefly luciferase expression or activity, dose response, H4 neuroglioma cells, luminescence (AID 1990); type: functional, cell-based
[2] = luciferase reporter signal reduction – luminescence, H4-C neuroglioblastoma cells, dose response (AID 2458); type: functional, cell-based;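 also: H4 neuroglioblastoma cells stably carrying a luciferase reporter gene fusion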
[3] = test system: BJ; assay: cytotoxicity toward BJ-TERT fibroblasts, dose response, cell-based, RAS-independent, luminescence (AID 1933); type: functional, Homo sapiens; conditions: Homo sapiens, BJ
[4] = cells; type: functional, cell-based
[5] = Luminescence Cell-Based Dose Response HTS to Identify Inhibitors of 5'UTR Stem-Loop Driven Prion Protein mRNA Translation in H4 Neuroglioblastoma Cells. [Related pubchem assays: 1827 (Project Summary), 1813 (Primary HTS)]; type: functional
[6] = inhibitors of SNCA 5'UTR-driven reporter translation, confirmation, H4 neuroglioma cells, luminescence (AID 1988); type: functional, cell-based
[7] = test system: BJ; assay: cells; type: functional, cell-based, Homo sapiens; conditions: Homo sapiens, BJ
[8] = cytotoxicity toward DRD oncogenic fibroblasts, dose response, cell-based, non-viral oncogenic, luminescence (AID 1934); type: functional; conditions: Homo sapiens
[9] = inhibitors of SNCA 5'UTR-driven translation, confirmation, luminescence, H4 neuroglioblastoma cells, dose confirmation (AID 2454); type: functional, cell-based;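 also: H4 neuroglioblastoma cells carrying an alpha-synuclein 5'UTR luciferase reporter; potency for inhibition of the luciferase signal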
[10] = cytotoxicity in HEK-293T cells, dose response, cytotoxicity control for TCR NF-kB inhibitor project, luminescence, T-cell screen hits (AID 489026); type: functional, cell-based;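 also: cells exposed to compound about 14 hours before the viability readout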
[11] = target: T1, Microphthalmia-associated transcription factor (Homo sapiens, UniProt O75030); assay: TRPM1 promoter luciferase signal decrease, dose response, MITF inhibitor project, cell-based, SK-MEL-5, cherry-picked, set 3 (AID 493073); type: functional
T1 sequence (O75030 whole entry): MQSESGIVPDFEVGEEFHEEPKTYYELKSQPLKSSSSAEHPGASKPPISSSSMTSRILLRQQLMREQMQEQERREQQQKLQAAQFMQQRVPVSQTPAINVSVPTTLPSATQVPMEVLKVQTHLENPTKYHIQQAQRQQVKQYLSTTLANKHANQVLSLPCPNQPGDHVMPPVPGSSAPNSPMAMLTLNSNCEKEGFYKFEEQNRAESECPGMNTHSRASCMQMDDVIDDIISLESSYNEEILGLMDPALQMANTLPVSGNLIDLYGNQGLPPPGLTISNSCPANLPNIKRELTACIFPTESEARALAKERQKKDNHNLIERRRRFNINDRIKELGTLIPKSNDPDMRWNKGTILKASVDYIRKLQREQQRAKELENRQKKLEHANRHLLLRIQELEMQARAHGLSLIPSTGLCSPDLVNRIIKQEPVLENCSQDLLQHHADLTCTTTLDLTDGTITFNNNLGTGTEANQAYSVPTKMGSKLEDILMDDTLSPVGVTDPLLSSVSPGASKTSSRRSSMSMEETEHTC

[12] = test system: A-375; assay: MITF: Counter assay: A375 proliferation Measured in Cell-Based System Using Plate Reader - 2084-03_Inhibitor_Dose_DryPowder_Activity. [Related pubchem assays (depositor defined):AID488944]; type: functional; conditions: Homo sapiens
[13] = test system: A-375; assay: A375 melanoma cell viability reduction, dose response, counter-screen for MITF modulator project, cherry-pick samples, set 2 (AID 540335); type: functional, cell-based; conditions: Homo sapiens
[14] = cells; type: functional, cell-based; remark: listed apart in the source
[15] = target: Nuclear receptor subfamily 0 group B member 1 (Homo sapiens, UniProt P51843); type: functional, cell-based;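 also: HEK293T cells transfected with SF-1 and DAX-1 plus StAR promoter luciferase reporter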
Sequence of Nuclear receptor subfamily 0 group B member 1 (P51843 whole entry): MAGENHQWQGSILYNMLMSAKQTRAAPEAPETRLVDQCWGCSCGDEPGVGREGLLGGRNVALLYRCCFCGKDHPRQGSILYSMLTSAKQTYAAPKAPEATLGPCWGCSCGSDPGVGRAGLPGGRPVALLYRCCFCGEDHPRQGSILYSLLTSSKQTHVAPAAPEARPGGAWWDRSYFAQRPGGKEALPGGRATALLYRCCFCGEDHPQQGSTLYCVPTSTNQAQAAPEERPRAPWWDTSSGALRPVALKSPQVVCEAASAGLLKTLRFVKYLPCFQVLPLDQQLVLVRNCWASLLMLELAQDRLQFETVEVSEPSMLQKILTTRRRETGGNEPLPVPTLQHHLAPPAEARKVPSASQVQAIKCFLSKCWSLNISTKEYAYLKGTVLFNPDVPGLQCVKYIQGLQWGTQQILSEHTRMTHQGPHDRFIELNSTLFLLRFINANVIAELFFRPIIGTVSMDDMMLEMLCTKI

[16] = target: Paired box protein Pax-8 (Homo sapiens, UniProt Q06710); assay: inhibitors of PAX8-driven TPO luciferase reporter, dose response, RMG-I cells, cherry-pick (AID 687027); type: functional, cell-based;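 also: luciferase reporter driven by Pax8 target thyroperoxidase promoter measured by SteadyGlo luminescence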
Sequence of Paired box protein Pax-8 (Q06710 whole entry): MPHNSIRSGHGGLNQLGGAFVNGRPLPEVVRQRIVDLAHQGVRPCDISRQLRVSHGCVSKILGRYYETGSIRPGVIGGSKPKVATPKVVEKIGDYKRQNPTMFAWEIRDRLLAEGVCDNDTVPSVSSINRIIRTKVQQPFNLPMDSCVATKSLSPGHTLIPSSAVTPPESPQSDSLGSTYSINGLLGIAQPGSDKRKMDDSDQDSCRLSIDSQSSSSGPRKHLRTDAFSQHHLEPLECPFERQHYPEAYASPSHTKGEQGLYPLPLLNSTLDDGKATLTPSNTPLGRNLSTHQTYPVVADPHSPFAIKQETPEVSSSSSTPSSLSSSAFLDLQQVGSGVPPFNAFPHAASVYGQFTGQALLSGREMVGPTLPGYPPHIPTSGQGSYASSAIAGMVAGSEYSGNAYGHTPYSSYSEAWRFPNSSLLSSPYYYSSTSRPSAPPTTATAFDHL

[17] = PAX2 cell-based inhibition, dose response, selectivity assay for PAX8 inhibitor project, plate reader, dry powder samples (AID 743048); type: functional;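 also: HEK293 cells carrying a WT1 promoter luciferase reporter driven by expressed Pax2; potency is for inhibition of Pax2 driven reporter signal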
[18] = cytotoxicity in COV362 ovarian cancer cells, dose response, cytotoxicity control for PAX8 inhibitor project, cell-based, plate reader, dry powder, SA12 (AID 743144); type: functional
[19] = IOSE-T80 ovarian epithelial cell cytotoxicity, dose response, cytotoxicity control for PAX8 inhibitor project, plate reader, dry powder samples (AID 743045); type: functional, cell-based
[20] = A2780 ovarian cancer cell cytotoxicity, dose response, cytotoxicity control, plate reader, dry powder samples (AID 743046); type: functional, cell-based
[21] = NIH:OVCAR-3 ovarian cancer cell cytotoxicity, dose response, PAX8 inhibitor project, plate reader, dry powder samples (AID 743044); type: functional, cell-based
[22] = PAX5 activity inhibitors, dose response, selectivity assay for PAX8 inhibitor project, cell-based, plate reader, dry powder samples (AID 743047); type: functional;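 also: HEK293 cells carrying a Pax5 driven CD19 promoter luciferase reporter; potency of inhibitors that lower reporter luminescence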
[23] = IGROV1 ovarian cancer cell cytotoxicity, dose response, PAX8 inhibitor project, plate reader, dry powder samples (AID 743043); type: functional, cell-based; conditions: IGROV-1
[24] = cytotoxicity in OVCAR4 cells, dose response, cytotoxicity control for PAX8 inhibitor project, cell-based, plate reader, dry powder, SA11 (AID 743150); type: functional; conditions: OVCAR-4
[25] = cytotoxicity in COV434 cells, dose response, cytotoxicity control for PAX8 inhibitor project, cell-based, plate reader, dry powder, SA7 (AID 743145); type: functional
[26] = cytotoxicity in OV-90 ovarian cancer cells, dose response, PAX8 inhibitor project, cell-based, plate reader, dry powder, SA8 (AID 743149); type: functional
[27] = cytotoxicity dependent on PAX8, dose response, cell-based, plate reader, dry powder (AID 743049); type: functional
[28] = target: T2, Short transient receptor potential channel 4 (Mus musculus, UniProt Q9QUQ5); assay: SAR Analysis for the identification of selective inhibits of the transient receptor potential cation channel C4 (TRPC4): Automated Electrophysiology_2. [Related pubchem assays (depositor defined):AID2256]; type: functional
T2 sequence (Q9QUQ5 whole entry): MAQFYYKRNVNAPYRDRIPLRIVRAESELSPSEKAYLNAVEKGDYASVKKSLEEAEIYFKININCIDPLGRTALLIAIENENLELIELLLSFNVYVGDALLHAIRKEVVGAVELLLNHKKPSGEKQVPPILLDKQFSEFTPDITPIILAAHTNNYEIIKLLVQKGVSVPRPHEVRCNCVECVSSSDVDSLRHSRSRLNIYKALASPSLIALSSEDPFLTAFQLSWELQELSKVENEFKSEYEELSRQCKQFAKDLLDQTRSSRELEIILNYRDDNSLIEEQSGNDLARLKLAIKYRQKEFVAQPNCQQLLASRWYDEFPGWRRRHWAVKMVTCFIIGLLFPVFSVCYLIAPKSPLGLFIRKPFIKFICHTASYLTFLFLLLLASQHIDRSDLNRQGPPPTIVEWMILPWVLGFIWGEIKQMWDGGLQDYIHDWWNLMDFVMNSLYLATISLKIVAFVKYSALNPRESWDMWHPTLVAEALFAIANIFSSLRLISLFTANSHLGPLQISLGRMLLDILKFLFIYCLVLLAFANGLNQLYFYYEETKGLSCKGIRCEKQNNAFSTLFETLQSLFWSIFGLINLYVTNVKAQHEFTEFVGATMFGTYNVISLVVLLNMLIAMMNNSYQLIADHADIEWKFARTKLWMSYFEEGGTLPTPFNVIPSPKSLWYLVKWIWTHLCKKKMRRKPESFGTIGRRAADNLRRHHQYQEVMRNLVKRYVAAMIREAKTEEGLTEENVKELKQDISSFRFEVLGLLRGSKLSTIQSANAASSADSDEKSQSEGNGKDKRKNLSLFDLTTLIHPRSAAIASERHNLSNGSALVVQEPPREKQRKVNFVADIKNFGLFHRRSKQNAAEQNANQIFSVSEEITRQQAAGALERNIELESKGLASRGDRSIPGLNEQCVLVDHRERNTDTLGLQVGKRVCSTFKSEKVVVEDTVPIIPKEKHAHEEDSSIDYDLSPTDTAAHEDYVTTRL

[29] = target: T2, Short transient receptor potential channel 4; assay: TRPC4 inhibitor concentration-response, dose response, cell-based, HEK293 TRPC4/mu-opioid, DAMGO stimulus, Fluo-4 (AID 492994); type: functional
[30] = target: Cyclin-dependent kinase 2 (Homo sapiens, UniProt P24941); assay: CDK2 kinase inhibitors, off-target check, dose response, selectivity assay for Dyrk1A inhibitor project, biochemical, cherry-picked samples (AID 602127)
[31] = target: Dual specificity protein kinase CLK1 (Homo sapiens, UniProt P49759); assay: CLK1 kinase inhibitors, off-target check, dose response, selectivity assay for Dyrk1A inhibitor project, biochemical, cherry-picked samples (AID 588811)
Sequence of Dual specificity protein kinase CLK1 (P49759 whole entry): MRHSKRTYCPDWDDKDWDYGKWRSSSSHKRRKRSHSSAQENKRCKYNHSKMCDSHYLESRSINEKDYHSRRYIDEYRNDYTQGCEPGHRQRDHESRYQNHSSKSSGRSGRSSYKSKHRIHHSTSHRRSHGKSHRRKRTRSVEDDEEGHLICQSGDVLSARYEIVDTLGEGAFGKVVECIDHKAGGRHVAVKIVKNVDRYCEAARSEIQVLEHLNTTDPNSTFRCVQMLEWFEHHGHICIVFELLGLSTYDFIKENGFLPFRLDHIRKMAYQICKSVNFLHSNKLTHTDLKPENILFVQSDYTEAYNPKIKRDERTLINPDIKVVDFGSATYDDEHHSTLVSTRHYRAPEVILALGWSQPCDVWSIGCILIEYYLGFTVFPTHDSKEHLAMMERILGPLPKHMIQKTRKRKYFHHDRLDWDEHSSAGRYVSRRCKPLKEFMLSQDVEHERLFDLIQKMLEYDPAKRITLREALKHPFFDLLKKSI

## COc1cccc(N2CCN(C(=O)c3ccc(C[S+]([O-])c4ccccc4Cl)o3)CC2)c1 (stereo unspecified)
[1]
  EC50: < 100 nM (active)
[2]
  EC50: 202 nM (active)
[3]
  EC50: 214 nM (active)
[4]
  EC50: 345 nM (active)
[5]
  EC50: < 100 nM (active)
[6]
  EC50: < 100 nM (active)
[7]
  EC50: 37700 nM (inconclusive)
[8]
  EC50: 225 nM (active)
[9]
  EC50: 354 nM (active)
[10]
  IC50: 58000 nM (inactive)
[11]
  AC50: 894 nM (active)
[12]
  AC50: > 35000 nM (active)
[13]
  AC50: > 35000 nM (active)
[14]
  IC50: > 67600 nM (inactive)
[15]
  IC50: > 67600 nM (inactive)
[16]
  AC50: 921 nM (active)
[17]
  AC50: 37500 nM (active)
[18]
  AC50: 2030 nM (active)
[19]
  AC50: 537 nM (active)
[20]
  AC50: 5000 nM (active)
[21]
  AC50: 478 nM (active)
[22]
  AC50: 3980 nM (active)
[23]
  AC50: 72000 nM (active)
[24]
  AC50: 646 nM (active)
[25]
  AC50: 684 nM (active)
[26]
  AC50: 2030 nM (active)
[27]
  AC50: 22000 nM (active)

## CCc1ccc2nc(N3CCCCCC3)cc(C)c2c1
[28]
  IC50: 3300 nM (active)
[29]
  IC50: 7370 nM (active)

## Cc1c(-c2ccnc(NCc3cccnc3)n2)sc(=O)n1C
[30]
  AC50: 15100 nM (active)
[31]
  AC50: 116 nM (active)

— ChEMBL document CHEMBL1201862, “PubChem BioAssay data set” (2004)
